In PubChem BioAssay (NCI):
Where “and” joins values, the source holds several entries; their conditions need not be identical. Identical values can stand only once.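 Exposure lasted 48 hours, with cells grown in 96-well plates and compounds tested at five concentrations. The concentration for 50% growth inhibition is given as GI50. The concentration for full growth arrest is given as TGI.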

What was measured:
Experiment in all cases: NCI anticancer screen, dose series, 48 h
[1] = system: SK-MEL-5 melanoma
[2] = system: OVCAR-8 ovarian
[3] = system: NCI-H522 lung
[4] = system: RPMI-8226 leukemia
[5] = system: SW-620 colon
[6] = system: NCI-H23 lung
[7] = system: UACC-257 melanoma
[8] = system: NCI-H226 lung
[9] = system: SF-295 CNS
[10] = system: EKVX NSCLC

| Structure (SMILES) | TGI [1] | TGI [2] | TGI [3] | TGI [4] | TGI [5] | TGI [6] | TGI [7] | TGI [8] [µM] | TGI [9] | TGI [10] [µM] | GI50 [1] | GI50 [2] | GI50 [3] | GI50 [4] | GI50 [9] | GI50 [5] | GI50 [6] | GI50 [7] | GI50 [10] [nM] | GI50 [8] [µM] |
| --- | --- | --- | --- | --- | --- | --- | --- | --- | --- | --- | --- | --- | --- | --- | --- | --- | --- | --- | --- | --- |
| C=C[C@@]1(C)CCC2(O)C(CCC3C2(C)CCC[C@@]3(C)COC(=O)CC(=O)OC)C1 (some centres not stated) | 32.1 µM | 55 µM | 32.4 µM | 47 µM | 31.7 µM | 37.4 µM | 36.5 µM | 55.9 |  |  |  |  |  |  |  |  |  |  |  |  |
| COC(=O)[C@H]1[C@H]2C[C@@H]3c4[nH]c5cc(OC)ccc5c4CCN3C[C@H]2C[C@@H](OC(=O)c2cc(OC)c(OC)c(OC)c2)[C@@H]1OC | 54.3 µM | 49.6 µM | 34 µM | 39.5 µM | > 100 µM | 41.7 µM | 42.1 µM | 66.7 | 37.7 µM |  |  |  |  |  |  |  |  |  |  |  |
| COc1ccc(C(C#N)NC23CC4CC(CC(C4)C2)C3)cc1OC (configuration not stated) | > 100 µM | > 100 µM | > 100 µM | > 100 µM | > 100 µM | > 100 µM | > 100 µM | > 100 | > 100 µM | > 100 |  |  |  |  |  |  |  |  |  |  |
| Cc1csc(/C=N/NC(=O)c2nnn(-c3ccnc4c(C(F)(F)F)cccc34)c2C)c1 | > 100 µM | > 100 µM | > 100 µM | > 100 µM | > 100 µM | > 100 µM | 51.4 µM | > 100 | > 100 µM | > 100 | 27200 nM | 74100 nM | 28700 nM | 33700 nM | 34700 nM | > 100000 nM | 48100 nM | 14000 nM | > 100000 | 79 |
| COc1cc(NS(C)(=O)=O)ccc1Nc1c2ccccc2nc2c(C)cccc12 | 1.2 µM and 3.69 µM | 7.08 µM and 11.6 µM | 12.2 µM and 2.98 µM | 0.853 µM and 0.717 µM | 3.4 µM and 4 µM | 2.88 µM and 11.4 µM | 12.1 µM and 13.5 µM |  | 0.386 µM and 3.46 µM |  | 153 nM and 218 nM | 233 nM and 230 nM | 662 nM and 219 nM | 187 nM and 134 nM | 39.9 nM and 87.4 nM | 82.5 nM and 123 nM | 134 nM and 191 nM | 792 nM and 639 nM |  |  |
| Cc1cc(Cc2cc(C)c(O)c(C)c2)cc(C)c1O | 17.5 µM | > 100 µM | 15.4 µM | 30.9 µM | > 100 µM | 74 µM | 62.2 µM | 77.1 | 21.7 µM |  | 4530 nM | 7590 nM | 3490 nM | 3890 nM | 3920 nM | 3030 nM | 11300 nM | 6940 nM |  | 19.2 |
| O=C(/C=C1\C(=O)N(Cc2ccc([N+](=O)[O-])cc2)c2ccccc21)c1ccc(OCCN2CCCCC2)cc1 | 3.04 µM | 4.8 µM | 1.99 µM | 4.13 µM |  | 2.97 µM | 3.57 µM | 21.4 | 4.12 µM | 3.9 | 1670 nM | 2210 nM | 614 nM | 1350 nM | 1780 nM |  | 1470 nM | 1950 nM | 1560 | 3.14 |
| O=C(CC(=O)C(=O)Nc1ccccc1)CC(c1ccccc1)c1c(O)c2ccccc2oc1=O (configuration not stated) | > 100 µM |  | > 100 µM |  | > 100 µM |  |  | > 100 | > 100 µM | > 100 |  |  |  |  |  |  |  |  |  |  |
| CCCCSN1C(=O)c2ccccc2C1=S | > 100 µM | > 100 µM |  | 49.4 µM | > 100 µM | > 100 µM | > 100 µM |  | > 100 µM | > 100 |  |  |  |  |  |  |  |  |  |  |
| Cc1ccc(C2CC(c3ccc([N+](=O)[O-])cc3)=Nc3ccccc3S2)cc1 (configuration not stated) | 38 µM | 72.3 µM | 73.3 µM | 44.9 µM | 46.6 µM | 77.4 µM | > 100 µM | > 100 | > 100 µM | > 100 |  |  |  |  |  |  |  |  |  |  |
| CC1(C)OC(=O)[C@@](C)([C@H](O)c2ccccc2)O1 | > 100 µM | > 100 µM | > 100 µM |  | > 100 µM | > 100 µM | > 100 µM | > 100 | > 100 µM | > 100 |  |  |  |  |  |  |  |  |  |  |
| CN(CCC#N)c1ccc(/C=C(\C#N)c2cccc(C(F)(F)F)c2)cc1 | 30.5 µM | > 100 µM |  | > 100 µM | > 100 µM | > 100 µM |  | > 100 | > 100 µM |  | 3230 nM | 3990 nM |  | 3630 nM | 3870 nM | 3170 nM | 3860 nM |  |  | 6.02 |
| O=C(/C=C/C12c3ccccc3C(c3ccccc31)C1C(=O)N(c3ccccc3)C(=O)C12)c1ccc(Cl)cc1 (configuration not stated) | 4.07 µM | > 100 µM | 3.58 µM | 4.68 µM | > 100 µM | 13.2 µM | 5.5 µM | 5.82 |  | 9.89 | 1950 nM | 1430 nM | 1740 nM | 1160 nM |  | 2270 nM | 2610 nM | 2130 nM | 1850 | 2.04 |
| N#CCCN(CCC#N)C(=O)c1cccc(C(=O)N(CCC#N)CCC#N)c1 | > 100 µM | > 69.1 µM | > 100 µM | > 85.1 µM | 26.5 µM | > 56 µM | > 100 µM |  | > 100 µM | > 63.9 |  |  |  |  |  |  |  |  |  |  |
| O=S1CSCS1 (configuration not stated) | > 100 µM | > 100 µM | > 100 µM |  | > 100 µM | > 100 µM | > 100 µM | > 100 | > 100 µM | > 100 |  |  |  |  |  |  |  |  |  |  |
| N=CCCN(CCC=N)c1ccc(/C=C2\CN(NC(=O)c3ccc(Cl)cc3)C(c3ccccc3)=N2)cc1 | > 100 µM | > 100 µM |  | 53.6 µM | 30.6 µM | > 100 µM | > 100 µM | > 100 | > 100 µM | > 100 |  |  |  |  |  |  |  |  |  |  |
| O=C(CC(=O)c1ccc([N+](=O)[O-])cc1)C(=O)Nc1nccs1 | > 100 µM | > 100 µM | > 100 µM | > 100 µM | > 100 µM | > 100 µM |  | > 100 |  | > 100 |  |  |  |  |  |  |  |  |  |  |
| O=C(C/C(=N\NC(=O)C[n+]1ccccc1)C(=O)Nc1nc2ccc([N+](=O)[O-])cc2s1)CC(c1ccccc1)c1c(O)c2ccccc2oc1=O (configuration not stated) | > 100 µM | > 100 µM | > 100 µM | > 100 µM | > 100 µM | > 100 µM | > 100 µM |  | > 100 µM | > 100 |  |  |  |  |  |  |  |  |  |  |
| Cc1cc(=O)n(-c2ccccc2)c(=O)o1 | > 100 µM |  | > 100 µM | > 100 µM | > 100 µM | > 100 µM | > 100 µM | > 100 | > 100 µM | > 100 |  |  |  |  |  |  |  |  |  |  |
